Test results taken from patent publication US20240287138A1, “CYCLIC PEPTIDES FOR INHIBITING TNF RECEPTOR 1 ACTIVITY” (Merck Sharp & Dohme LLC, priority 2023, published 2024).
Where two headings read alike, the source gives them in different places. Numbered stars: 1 amine (or outer) side, 2 acyl side, 3 side chain; on linkers, the order of the positions; unused ones are H or OH. Bridge positions count the residues as written; N and C are the ends. Square brackets hold non-standard residues; d marks the D form. Peptide text beside a SMILES is read from it. * marks the point of attachment. Trp(βS-Me,7-OMe) = COc1cccc2c([C@H](C)[C@H](N)C(=O)O)c[nH]c12; dPro(trans-4-NMe3+) = C[N+](C)(C)[C@@H]1CN[C@@H](C(=O)O)C1; Phe(4-SO2NH2) = N[C@@H](Cc1ccc(S(N)(=O)=O)cc1)C(=O)O; Trp(7-CN) = N#Cc1cccc2c(C[C@H](N)C(=O)O)c[nH]c12; Trp(7-Cl) = N[C@@H](Cc1c[nH]c2c(Cl)cccc12)C(=O)O; Phe(4-CONH2) = NC(=O)c1ccc(C[C@H](N)C(=O)O)cc1; Phe(4-COOH) = N[C@@H](Cc1ccc(C(=O)O)cc1)C(=O)O; 4Pal(3S-Me) = C[C@@H](c1ccncc1)[C@H](N)C(=O)O; Trp(7-aza) = N[C@@H](Cc1c[nH]c2ncccc12)C(=O)O; Phe(4-CH2NH2) = NCc1ccc(C[C@H](N)C(=O)O)cc1; dPro(trans-4-F) = O=C(O)[C@H]1C[C@H](F)CN1; Pip(5R-OH) = O=C(O)[C@@H]1CC[C@@H](O)CN1; αMeW = C[C@](N)(Cc1c[nH]c2ccccc12)C(=O)O; X1 = O=C([C@@H]1CC[C@H](N[*:1])C1)[*:2]; X35 = CC(C)(N)[C@H](N[*:1])C(=O)[*:2]; Pip(4-aza) = O=C(O)[C@@H]1CNCCN1; 4Pal = N[C@@H](Cc1ccncc1)C(=O)O; NMeE = CN[C@@H](CCC(=O)O)C(=O)O; X36 = C[C@@H](C(=O)[*:1])[*:2]; αMeS = C[C@](N)(CO)C(=O)O; Carboxymethyl = O=C(O)C*; Nle = CCCC[C@H](N)C(=O)O; Dab = NCC[C@H](N)C(=O)O; Sar = CNCC(=O)O

Experiments:
[1] = molecular target: T1, human soluble TNFR1 (sTNFR1) (Homo sapiens, UniProt P19438); assay: Human sTNFR1-peptide displacement assay (LanthaScreen Eu TR-FRET binding assay)
T1 construct: made in house; host or cells: Sf21 (baculovirus)
T1 sequence (P19438 with tags, fused parts or gaps): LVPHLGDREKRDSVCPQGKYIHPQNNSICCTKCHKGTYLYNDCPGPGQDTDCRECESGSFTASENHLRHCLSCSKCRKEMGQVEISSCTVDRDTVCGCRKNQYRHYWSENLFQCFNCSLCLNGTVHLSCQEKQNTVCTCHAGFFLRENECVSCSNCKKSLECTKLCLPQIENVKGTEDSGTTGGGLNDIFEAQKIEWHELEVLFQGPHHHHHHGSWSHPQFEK
Method in brief: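 Readout is the 665/615 nm TR-FRET ratio (Eu anti-His donor, streptavidin-Alexa647 acceptor), normalized to DMSO and saturating displacer, fit by Morrison-based five-parameter logistic for Kd^app. His-tagged sTNFR1 (1-211) prebound to 100 nM biotinylated peptide SEQ ID NO.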

[2] = molecular target: T2, TNFα-induced NF-κB signal transduction pathway (TNFR1 signaling) in THP-1 cells (Homo sapiens, UniProt P19438); assay: THP-1 Lucia NF-κB reporter cell assay, inhibition of TNFα-induced NF-κB signaling; type: cell-based; settings: THP-1 NF-κB Lucia reporter cells, 10 ng/mL TNFα, 16-18 h, secreted luciferase; read-out: THP-1 IC50
T2 sequence (P19438 30-455): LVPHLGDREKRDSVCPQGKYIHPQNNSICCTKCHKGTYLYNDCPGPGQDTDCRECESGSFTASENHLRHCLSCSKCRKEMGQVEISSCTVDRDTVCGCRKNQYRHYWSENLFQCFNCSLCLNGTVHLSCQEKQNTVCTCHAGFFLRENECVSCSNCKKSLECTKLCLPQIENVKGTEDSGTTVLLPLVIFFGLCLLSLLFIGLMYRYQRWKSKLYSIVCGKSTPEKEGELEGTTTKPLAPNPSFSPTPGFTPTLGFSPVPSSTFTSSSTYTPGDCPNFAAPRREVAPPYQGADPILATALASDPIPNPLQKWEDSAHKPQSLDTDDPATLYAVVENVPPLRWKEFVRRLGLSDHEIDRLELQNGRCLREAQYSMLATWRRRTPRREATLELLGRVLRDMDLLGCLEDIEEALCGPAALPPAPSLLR
Method in brief: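 IC50 from a 4-parameter logistic fit of secreted luciferase luminescence (QUANTI-Luc), normalised to min/max controls. Reporter THP-1 cells were exposed to peptides for 1 h at 37 °C before 10 ng/mL TNFα (final) was added overnight (16–18 h).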

| SMILES | IC50 [1] | IC50 [2] | Kd ([1]; displacement of biotinylated peptide SEQ ID NO. 1 from sTNFR1, 20 point titration, 5-parameter fit based on Morrison equation (tight binding), read-out: TR-FRET Kd^app) | Kd [1] |
| --- | --- | --- | --- | --- |
| CCCC[C@@H]1NC(=O)CSC[C@@H](C(N)=O)NC(=O)[C@H]([C@@H](C)c2c[nH]c3c(OC)cccc23)NC(=O)CN(C)C(=O)[C@H](Cc2ccc(O)cc2)NC(=O)[C@H](Cc2ccc(C(=O)O)cc2)NC(=O)[C@](C)(CO)NC(=O)[C@H](Cc2c[nH]c3c(Cl)cccc23)NC(=O)[C@H]([C@@H](C)c2ccncc2)NC(=O)[C@H](CC(N)=O)NC(=O)[C@H](CCC(=O)O)N(C)C(=O)[C@H](Cc2c[nH]c3ccccc23)NC(=O)[C@H](CO)NC(=O)[C@H](Cc2ccc(CN)cc2)NC1=O [SEQ ID NO. 252] ({CH2CO}-[Nle][Phe(4-CH2NH2)]SW[NMeE]N[4Pal(3S-Me)][Trp(7-Cl)][αMeS][Phe(4-COOH)]Y[Sar][Trp(βS-Me,7-OMe)]C-NH2; thioether N-14) | 2.39 nM | 23.3 nM | – | – |
| CCCC[C@@H]1NC(=O)[C@@H]2CC[C@@H](C2)NC(=O)[C@H]([C@@H](C)c2c[nH]c3c(OC)cccc23)NC(=O)CN(C)C(=O)[C@H](Cc2ccc(OCC(=O)O)cc2)NC(=O)[C@H](Cc2ccc(S(N)(=O)=O)cc2)NC(=O)[C@](C)(CO)NC(=O)[C@H](Cc2c[nH]c3c(C#N)cccc23)NC(=O)[C@H](Cc2ccc(OCC(=O)O)cc2)NC(=O)[C@H](CC(N)=O)NC(=O)[C@H]2C[C@H]([N+](C)(C)C)CN2C(=O)[C@H](Cc2c[nH]c3ncccc23)NC(=O)[C@@H]2CC[C@@H](O)CN2C(=O)[C@H](Cc2ccncc2)NC1=O [SEQ ID NO. 257] (cyclo([4Pal][Pip(5R-OH)][Trp(7-aza)][dPro(trans-4-NMe3+)]NY(Carboxymethyl)[Trp(7-CN)][αMeS][Phe(4-SO2NH2)]Y(Carboxymethyl)[Sar][Trp(βS-Me,7-OMe)][X1][Nle])) | – | 0.4 nM | 0.08 nM | – |
| CCCC[C@@H]1NC(=O)[C@H](C)SC[C@@H](C(N)=O)NC(=O)[C@H]([C@@H](C)c2c[nH]c3c(OC)cccc23)NC(=O)CN(C)C(=O)[C@H](Cc2ccc(O)cc2)NC(=O)[C@H](Cc2ccc(C(N)=O)cc2)NC(=O)[C@](C)(CO)NC(=O)[C@H](Cc2c[nH]c3c(Cl)cccc23)NC(=O)[C@H](Cc2ccncc2)NC(=O)[C@H](CC(N)=O)NC(=O)[C@H](CCC(=O)O)N(C)C(=O)[C@H](Cc2c[nH]c3ncccc23)NC(=O)[C@H](C(C)(C)N)NC(=O)[C@H](Cc2ccncc2)NC1=O [SEQ ID NO. 273] ([Nle][4Pal][X35][Trp(7-aza)][NMeE]N[4Pal][Trp(7-Cl)][αMeS][Phe(4-CONH2)]Y[Sar][Trp(βS-Me,7-OMe)]C-NH2; linker N-14 via X36) | 0.6 nM | 4.1 nM | – | 0.33 nM |
| CCCC[C@@H]1NC(=O)CSC[C@@H](C(N)=O)NC(=O)[C@](C)(Cc2c[nH]c3ccccc23)NC(=O)CN(C)C(=O)[C@H](Cc2ccc(O)cc2)NC(=O)[C@H](Cc2ccc(C(=O)O)cc2)NC(=O)[C@](C)(CO)NC(=O)[C@H](Cc2c[nH]c3c(Cl)cccc23)NC(=O)[C@H](Cc2ccncc2)NC(=O)[C@H](CC(N)=O)NC(=O)[C@H](CCC(=O)O)N(C)C(=O)[C@H](Cc2c[nH]c3ncccc23)NC(=O)[C@H](CCN)NC(=O)[C@H](Cc2ccncc2)NC1=O [SEQ ID NO. 277] ({CH2CO}-[Nle][4Pal][Dab][Trp(7-aza)][NMeE]N[4Pal][Trp(7-Cl)][αMeS][Phe(4-COOH)]Y[Sar][αMeW]C-NH2; thioether N-14) | 1.12 nM | 3 nM | – | – |
| CCCC[C@@H]1NC(=O)CSC[C@@H](C(N)=O)NC(=O)[C@H]([C@@H](C)c2c[nH]c3c(OC)cccc23)NC(=O)CN(C)C(=O)[C@H](Cc2ccc(O)cc2)NC(=O)[C@H](Cc2ccc(C(=O)O)cc2)NC(=O)[C@](C)(CO)NC(=O)[C@H](Cc2c[nH]c3c(Cl)cccc23)NC(=O)[C@H](Cc2ccncc2)NC(=O)[C@H](CC(N)=O)NC(=O)[C@H]2C[C@H](F)CN2C(=O)[C@H](Cc2c[nH]c3ccccc23)NC(=O)[C@@H]2CNCCN2C(=O)[C@H](Cc2ccncc2)NC1=O [SEQ ID NO. 279] ({CH2CO}-[Nle][4Pal][Pip(4-aza)]W[dPro(trans-4-F)]N[4Pal][Trp(7-Cl)][αMeS][Phe(4-COOH)]Y[Sar][Trp(βS-Me,7-OMe)]C-NH2; thioether N-14) | – | 1.4 nM | – | 0.38 nM |
